Source: paper PMC11239830, “Synthetic macrolides overcoming MLSBK-resistant pathogens” (Cell Discovery, 2024)
Converted amounts (≈) assume the structure as drawn. Like-named read-outs stand apart in the source and are kept apart here.

Tests used:
Test in all cases: MIC, broth microdilution
S. pneumoniae = type: cell-based, Streptococcus pneumoniae; details: Streptococcus pneumoniae, read-out: MIC
Protocol: (§1) MICs were determined by the microdilution method according to the Clinical and Laboratory Standards Institute guidelines. […] Finally, the 96-well plates were incubated at 37 °C for 16–20 h to observe and record the results. […] The assay for MICs was replicated at least three times.

S. pyogenes = type: cell-based, Streptococcus pyogenes; details: Streptococcus pyogenes, S. pyogenes 12-206, c-ermTR; read-out: MIC
Protocol: as §1

H. influenzae = type: cell-based, Haemophilus influenzae; details: Haemophilus influenzae, ATCC49247, H. influenzae ATCC49247, Azi-S; read-out: MIC
Protocol: as §1

M. catarrhalis = type: cell-based, Moraxella catarrhalis; details: Moraxella catarrhalis; M. catarrhalis 13L332, Ery-S; read-out: MIC
Protocol: MICs were determined by the microdilution method according to the Clinical and Laboratory Standards Institute guidelines. Briefly, the stock solution of compounds and the reference antibiotics were diluted 2-fold in sterile 96-well plates with cation-adjusted Mueller-Hinton broth, and mixed with CAMHB-containing bacteria to give a final inoculum of 5 × 10^5 CFU/mL for broth microdilution experiments. […] Finally, the 96-well plates were incubated at 37 °C for 16–20 h to observe and record the results. The lowest concentration at which no bacterial growth could be observed visually was identified as the MICs of the compounds. The assay for MICs was replicated at least three times.

[1] = ATCC49619, S. pneumoniae ATCC49619, Ery-S
[2] = S. pneumoniae 05O173, c-ermB, mef

| Compound | MIC (S. pneumoniae; [1]) [µg/mL] | MIC (S. pneumoniae; [2]) [µg/mL] | MIC (S. pneumoniae; S. pneumoniae 07P390, c-ermB) [µg/mL] | MIC (S. pyogenes) [µg/mL] | MIC (H. influenzae) [µg/mL] | MIC (M. catarrhalis) [µg/mL] |
| --- | --- | --- | --- | --- | --- | --- |
| CC[C@H]1OC(=O)[C@H](C)[C@@H](OC(=O)NCCCCCCCC#Cc2ccc3c(=O)c(C(=O)O)cn(C)c3c2)[C@H](C)[C@@H](O[C@@H]2O[C@H](C)C[C@H](N(C)C)[C@H]2O)[C@](C)(OC)C[C@@H](C)C(=O)[C@H](C)[C@H]2NC(=O)O[C@@]21C [89g] | ≤ 0.008 | 16 (≈ 16.3 µM) | 0.25 (≈ 0.255 µM) | 1 (≈ 1.02 µM) | 8 (≈ 8.15 µM) | 1 (≈ 1.02 µM) |
| CC[C@H]1OC(=O)[C@H](C)[C@@H](OC(=O)NCCCCCCC#Cc2ccc3c(=O)c(C(=O)O)cn(C)c3c2)[C@H](C)[C@@H](O[C@@H]2O[C@H](C)C[C@H](N(C)C)[C@H]2O)[C@](C)(O)C[C@@H](C)CN(C)[C@H](C)[C@@H](O)[C@]1(C)O [106g] | 0.25 (≈ 0.265 µM) | 128 (≈ 136 µM) | 4 (≈ 4.24 µM) | 4 (≈ 4.24 µM) | 8 (≈ 8.48 µM) | 0.5 (≈ 0.53 µM) |
| CC[C@H]1OC(=O)[C@H](C)[C@@H](OC(=O)NCCCCOCCC#Cc2ccc3c(=O)c(C(=O)O)cn(C)c3c2)[C@H](C)[C@@H](O[C@@H]2O[C@H](C)C[C@H](N(C)C)[C@H]2O)[C@](C)(OC)C[C@@H](C)C(=O)[C@H](C)[C@H]2NC(=O)O[C@@]21C [96g] | ≤ 0.008 | 8 (≈ 8.14 µM) | 0.25 (≈ 0.254 µM) | 0.5 (≈ 0.509 µM) | 2 (≈ 2.03 µM) | 0.5 (≈ 0.509 µM) |
| CC[C@H]1OC(=O)[C@H](C)[C@@H](OC(=O)NCCCOCCC#Cc2ccc3c(=O)c(C(=O)O)cn(CC)c3c2)[C@H](C)[C@@H](O[C@@H]2O[C@H](C)C[C@H](N(C)C)[C@H]2O)[C@](C)(OC)C[C@@H](C)C(=O)[C@H](C)[C@H]2NC(=O)O[C@@]21C [95f] | ≤ 0.008 | 4 (≈ 4.07 µM) | 0.12 (≈ 0.122 µM) | 0.5 (≈ 0.509 µM) |  | 0.5 (≈ 0.509 µM) |
